From US10800791B2, “Triazole ACC inhibitors and uses thereof” (Gilead Apollo, LLC, priority 2015, dated 2020)
≈ marks a conversion by molar mass, not a printed value. Read-outs that look alike come from different tables or passages of the source.

Assays:
C. parapsilosis = test: Antifungal Activity Assay (broth microtiter MIC), C. parapsilosis; type: cell-based, Candida parapsilosis; settings: for MIC: Lodderomyces parapsilosis, ATCC22019, 48 h
Method: (§1) Compounds of the present invention were evaluated in an Antifungal Activity Assay. An exemplary procedure for the assay, which measures the susceptibility of various Candida species to antifungal compounds, follows. Compounds to be tested (including fluconazole and amphotericin B) were dissolved in DMSO to obtain a solution having a concentration of 1 mg/mL. These stock solutions were sterile filtered using a 0.22 um nylon syringe filter, then diluted in sterile water to achieve a final concentration of 128 μg/mL.
(§2) All species were grown from frozen stock by directly plating on to freshly prepared Sabouraud Dextrose agar (BD, Difco) and incubated overnight in ambient air at 35° C. for 24 h. A direct suspension was prepared in RPMI 1640+MOPS (Lonza, Biowhittaker) by taking individual colonies from the overnight cultures using sterile swabs soaked in sterile saline. The concentration of the suspension was determined using pre-determined standard curves. These suspensions were then diluted down to 5×10^3 CFU/mL to achieve a final concentration of 2.5×10^3 CFU/mL once added to the microtiter plate as per CLSI guidelines (M27-A3, Vol. 28 No. 14).
(§3) Broth microtiter MIC challenge plates were prepared following CLSI guidelines (M27-A3, Vol. 28 No. 14). The original CLSI guidelines focused on reading Candida MICs after 48 h of incubation. As reading after only 24 h offers a clear advantage of patient care, QC limits are being established for all drugs at 24 h. That being said there are no known interpretive breakpoints for amphotericin B at 24 h and the current fluconazole interpretive breakpoints are based on a 48 h reading. The MICs for the test compounds were recorded at 48 h. All MIC determinations were achieved by visually comparing the growth found in the antibiotic challenged wells to that of the growth control.

C. albicans = test: Antifungal Activity Assay (broth microtiter MIC), C. albicans; type: cell-based, Candida albicans; settings: for MIC: Candida albicans, ATCC90028, 48 h
Method: as §1, §2, §3

human (hACC2) = human (hACC2) (Homo sapiens, UniProt O00763); test: In vitro ACC inhibition assay (ADP-Glo), hACC2; type: biochemical; settings: 5 nM ACC2, 20 μM ATP, 20 μM acetyl-CoA
Method: The detailed procedure is as follows. […] 10 μL ADP glo reagent was added. […] 20 μL kinase detection reagent was added.

fungal (fACC2) = fungal (fACC2) (UniProt Q00955); settings: read-out: fACC2 (in vitro ACC2 Inhibition Assay, IC50), ADP-Glo, 5 nM ACC2, 20 μM ATP, 20 μM acetyl-CoA
C. krusei = test: Antifungal Activity Assay (broth microtiter MIC), C. krusei; type: cell-based, Candida krusei; settings: for MIC: Pichia kudriavzevii, ATCC6258, 48 h
Method: as §1, §2, §3

[1] = Table 3a, ATCC 22019, 3 replicates, MIC recorded at 48 h, read-out: MIC, C. parapsilosis ATCC 22019
[2] = Table 3b (additional results), ATCC 22019, 3 replicates, MIC recorded at 48 h, read-out: MIC, C. parapsilosis ATCC 22019
[3] = Table 3a, ATCC 90028, 3 replicates, MIC recorded at 48 h, read-out: MIC, C. albicans ATCC 90028
[4] = Table 3b (additional results), ATCC 90028, 3 replicates, MIC recorded at 48 h, read-out: MIC, C. albicans ATCC 90028
[5] = Table 3a, ATCC 6258, 3 replicates, MIC recorded at 48 h, read-out: MIC, C. krusei ATCC 6258
[6] = Table 3b (additional results), ATCC 6258, 3 replicates, MIC recorded at 48 h, read-out: MIC, C. krusei ATCC 6258
[7] = Table 3a, 3 replicates, MIC recorded at 48 h
[8] = read-out: MIC, C. parapsilosis ATCC 22019, Table 3b (additional results), 3 replicates, MIC recorded at 48 h
[9] = read-out: MIC, C. albicans ATCC 90028, Table 3b (additional results), 3 replicates, MIC recorded at 48 h
[10] = read-out: MIC, C. krusei ATCC 6258, Table 3b (additional results), 3 replicates, MIC recorded at 48 h

Sequence of fungal (fACC2) (Q00955 whole entry): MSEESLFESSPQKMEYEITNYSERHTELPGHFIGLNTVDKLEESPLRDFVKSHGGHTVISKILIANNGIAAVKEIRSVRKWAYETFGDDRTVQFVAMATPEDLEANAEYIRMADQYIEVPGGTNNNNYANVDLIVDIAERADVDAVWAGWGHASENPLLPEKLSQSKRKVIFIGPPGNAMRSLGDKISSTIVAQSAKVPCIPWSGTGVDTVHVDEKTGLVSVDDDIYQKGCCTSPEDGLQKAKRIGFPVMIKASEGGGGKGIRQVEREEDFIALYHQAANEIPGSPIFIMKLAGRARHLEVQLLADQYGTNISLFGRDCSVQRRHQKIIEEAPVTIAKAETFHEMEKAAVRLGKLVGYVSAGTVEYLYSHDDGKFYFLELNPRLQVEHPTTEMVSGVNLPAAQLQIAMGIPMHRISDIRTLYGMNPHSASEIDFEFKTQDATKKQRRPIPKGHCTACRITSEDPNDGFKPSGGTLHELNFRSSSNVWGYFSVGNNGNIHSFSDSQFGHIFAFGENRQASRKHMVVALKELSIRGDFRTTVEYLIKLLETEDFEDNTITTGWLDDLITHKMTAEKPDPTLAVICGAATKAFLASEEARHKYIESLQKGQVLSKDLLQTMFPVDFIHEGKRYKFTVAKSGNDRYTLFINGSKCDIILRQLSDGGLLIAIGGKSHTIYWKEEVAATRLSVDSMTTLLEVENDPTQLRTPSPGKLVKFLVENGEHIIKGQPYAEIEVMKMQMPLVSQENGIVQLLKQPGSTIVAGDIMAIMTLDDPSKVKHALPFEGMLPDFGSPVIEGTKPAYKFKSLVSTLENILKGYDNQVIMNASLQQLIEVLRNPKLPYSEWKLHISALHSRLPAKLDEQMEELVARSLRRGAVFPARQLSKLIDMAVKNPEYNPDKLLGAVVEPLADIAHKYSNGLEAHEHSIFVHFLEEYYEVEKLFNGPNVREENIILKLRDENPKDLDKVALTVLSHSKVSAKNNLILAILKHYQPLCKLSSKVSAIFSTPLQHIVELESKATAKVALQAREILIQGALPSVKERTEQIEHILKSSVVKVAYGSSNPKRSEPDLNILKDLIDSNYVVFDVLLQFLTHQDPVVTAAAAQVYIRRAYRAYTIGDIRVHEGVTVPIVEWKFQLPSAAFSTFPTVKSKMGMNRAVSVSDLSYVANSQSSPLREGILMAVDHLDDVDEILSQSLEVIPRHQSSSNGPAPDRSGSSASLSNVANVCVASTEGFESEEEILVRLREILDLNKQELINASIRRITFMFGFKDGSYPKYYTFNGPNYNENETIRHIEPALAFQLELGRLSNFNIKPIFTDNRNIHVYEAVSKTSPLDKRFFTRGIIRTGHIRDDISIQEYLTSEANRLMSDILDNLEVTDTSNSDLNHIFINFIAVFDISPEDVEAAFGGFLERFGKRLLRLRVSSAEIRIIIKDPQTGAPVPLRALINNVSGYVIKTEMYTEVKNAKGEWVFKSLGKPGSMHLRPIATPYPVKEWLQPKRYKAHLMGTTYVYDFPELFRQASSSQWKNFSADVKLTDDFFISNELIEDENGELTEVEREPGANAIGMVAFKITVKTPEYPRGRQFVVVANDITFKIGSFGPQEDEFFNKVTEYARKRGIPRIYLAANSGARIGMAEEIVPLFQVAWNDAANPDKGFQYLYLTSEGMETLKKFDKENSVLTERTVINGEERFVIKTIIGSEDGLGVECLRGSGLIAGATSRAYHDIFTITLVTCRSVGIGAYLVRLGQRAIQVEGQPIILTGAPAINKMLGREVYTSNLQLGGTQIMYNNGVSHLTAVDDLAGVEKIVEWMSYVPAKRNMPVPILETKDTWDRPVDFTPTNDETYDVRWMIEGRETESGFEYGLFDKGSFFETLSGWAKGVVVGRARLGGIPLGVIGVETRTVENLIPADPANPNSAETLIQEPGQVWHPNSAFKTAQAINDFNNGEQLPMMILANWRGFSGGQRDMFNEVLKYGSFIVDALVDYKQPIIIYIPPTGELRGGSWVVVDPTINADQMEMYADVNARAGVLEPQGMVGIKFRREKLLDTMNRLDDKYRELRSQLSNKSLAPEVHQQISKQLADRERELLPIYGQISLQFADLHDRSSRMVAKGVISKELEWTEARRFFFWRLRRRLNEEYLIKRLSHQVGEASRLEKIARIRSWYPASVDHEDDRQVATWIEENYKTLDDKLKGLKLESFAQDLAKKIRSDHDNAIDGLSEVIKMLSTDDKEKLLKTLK
Sequence of human (hACC2) (O00763 whole entry): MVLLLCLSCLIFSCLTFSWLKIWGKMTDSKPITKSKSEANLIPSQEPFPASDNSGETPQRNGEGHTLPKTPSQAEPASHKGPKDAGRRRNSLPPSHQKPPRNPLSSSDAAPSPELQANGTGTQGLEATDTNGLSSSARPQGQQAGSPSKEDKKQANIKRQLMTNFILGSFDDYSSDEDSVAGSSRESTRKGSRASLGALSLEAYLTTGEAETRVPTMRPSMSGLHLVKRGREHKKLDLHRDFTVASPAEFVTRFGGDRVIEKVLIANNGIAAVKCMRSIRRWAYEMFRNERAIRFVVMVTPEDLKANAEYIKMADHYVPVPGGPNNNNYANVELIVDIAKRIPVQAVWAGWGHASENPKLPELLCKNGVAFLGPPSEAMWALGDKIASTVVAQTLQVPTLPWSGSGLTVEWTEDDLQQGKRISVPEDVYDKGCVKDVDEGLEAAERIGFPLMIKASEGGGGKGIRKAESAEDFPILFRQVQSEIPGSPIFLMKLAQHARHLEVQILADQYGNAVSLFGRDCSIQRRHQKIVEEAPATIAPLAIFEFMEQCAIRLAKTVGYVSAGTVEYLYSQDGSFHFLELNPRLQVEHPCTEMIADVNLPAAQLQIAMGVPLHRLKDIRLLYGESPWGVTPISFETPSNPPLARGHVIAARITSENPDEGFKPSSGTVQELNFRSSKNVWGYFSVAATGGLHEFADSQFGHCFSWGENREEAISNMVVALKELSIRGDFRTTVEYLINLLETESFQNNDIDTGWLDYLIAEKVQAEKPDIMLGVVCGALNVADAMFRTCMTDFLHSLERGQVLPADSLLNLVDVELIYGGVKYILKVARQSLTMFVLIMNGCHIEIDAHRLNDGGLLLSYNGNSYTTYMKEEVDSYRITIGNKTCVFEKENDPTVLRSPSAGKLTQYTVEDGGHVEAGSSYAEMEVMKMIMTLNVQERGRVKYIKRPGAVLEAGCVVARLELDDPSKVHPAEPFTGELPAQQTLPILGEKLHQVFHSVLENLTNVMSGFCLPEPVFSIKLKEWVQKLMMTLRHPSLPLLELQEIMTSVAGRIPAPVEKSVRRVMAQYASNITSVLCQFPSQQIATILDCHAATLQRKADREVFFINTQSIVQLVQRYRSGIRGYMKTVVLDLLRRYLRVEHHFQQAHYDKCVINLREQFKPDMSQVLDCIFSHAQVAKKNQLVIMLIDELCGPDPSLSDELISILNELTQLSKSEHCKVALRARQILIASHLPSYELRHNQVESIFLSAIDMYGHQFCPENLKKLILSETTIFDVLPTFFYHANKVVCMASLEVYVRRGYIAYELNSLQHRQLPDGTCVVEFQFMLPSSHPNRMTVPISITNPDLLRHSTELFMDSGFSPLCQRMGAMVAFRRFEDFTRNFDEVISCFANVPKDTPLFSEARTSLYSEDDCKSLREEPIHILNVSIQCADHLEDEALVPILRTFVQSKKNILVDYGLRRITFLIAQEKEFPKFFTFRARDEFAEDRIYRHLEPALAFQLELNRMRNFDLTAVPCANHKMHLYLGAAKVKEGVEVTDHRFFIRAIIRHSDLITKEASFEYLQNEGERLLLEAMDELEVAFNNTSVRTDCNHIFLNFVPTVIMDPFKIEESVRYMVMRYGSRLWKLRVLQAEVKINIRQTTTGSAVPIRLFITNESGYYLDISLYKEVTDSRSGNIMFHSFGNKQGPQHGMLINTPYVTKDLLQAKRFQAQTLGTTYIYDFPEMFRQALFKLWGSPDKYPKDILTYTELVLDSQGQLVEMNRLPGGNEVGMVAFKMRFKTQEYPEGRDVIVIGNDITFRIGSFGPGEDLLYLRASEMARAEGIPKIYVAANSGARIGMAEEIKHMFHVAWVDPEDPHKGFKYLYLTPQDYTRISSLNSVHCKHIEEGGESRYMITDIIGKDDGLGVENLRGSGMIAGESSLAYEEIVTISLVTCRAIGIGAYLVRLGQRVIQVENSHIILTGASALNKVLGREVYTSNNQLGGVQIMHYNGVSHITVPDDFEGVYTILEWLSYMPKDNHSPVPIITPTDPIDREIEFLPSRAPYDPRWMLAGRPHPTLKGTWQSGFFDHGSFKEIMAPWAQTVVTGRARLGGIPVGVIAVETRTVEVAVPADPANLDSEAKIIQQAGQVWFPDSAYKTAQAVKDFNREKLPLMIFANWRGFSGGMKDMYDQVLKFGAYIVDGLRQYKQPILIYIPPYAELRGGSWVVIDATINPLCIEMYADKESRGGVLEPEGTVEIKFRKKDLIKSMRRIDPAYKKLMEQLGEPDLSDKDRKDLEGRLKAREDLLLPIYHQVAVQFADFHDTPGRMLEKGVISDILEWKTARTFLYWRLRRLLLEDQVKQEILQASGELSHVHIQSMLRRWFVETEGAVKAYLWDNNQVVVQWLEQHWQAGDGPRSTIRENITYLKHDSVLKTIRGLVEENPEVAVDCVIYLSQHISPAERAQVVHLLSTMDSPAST

Row | MIC (C. krusei; [6]) [µg/mL] | Compound | MIC (C. parapsilosis; [1]) [µg/mL] | MIC (C. parapsilosis; [2]) [µg/mL] | MIC (C. albicans; [3]) [µg/mL] | MIC (C. albicans; [4]) [µg/mL] | IC50 (human (hACC2); Table 2a) [nM] | IC50 (human (hACC2); Table 2b, additional results) [nM] | IC50 (fungal (fACC2); Table 2a) [nM] | IC50 (fungal (fACC2); Table 2b, additional results) [nM] | MIC (C. krusei; [5]) [µg/mL] | MIC, C. parapsilosis ATCC 22019 (C. parapsilosis; [7]) | MIC, C. albicans ATCC 90028 (C. albicans; [7]) | MIC, C. krusei ATCC 6258 (C. krusei; [7]) | MIC, C. krusei ATCC 6258 (C. krusei; Table 3b (additional results), 3 replicates, MIC recorded at 48 h) | MIC (C. parapsilosis; [8]) [µg/mL] | MIC (C. albicans; [9]) [µg/mL] | MIC (C. krusei; [10]) [µg/mL]
1 | – | COCCO[C@@H](Cn1c(=O)n(C(C)(C)C(=O)NC2CCC2)c(=O)c2c(C)c(-n3nccn3)sc21)c1cc(F)ccc1OC [Compound I-100] | – | 0.25 to 1 (≈ 0.407 to 1.63 µM) | – | 2.01 to 4 (≈ 3.27 to 6.51 µM) | 1 to 5 | 1 to 5 | 1 to 5 | 1 to 5 | – | A (MIC of 0.25-1.0 μg/mL) | A (MIC of 0.25-1.0 μg/mL) | AA (MIC of 0.06-0.24 μg/mL) | A (MIC of 0.25-1.0 μg/mL) | – | – | –
2 | 2.01 to 4 (≈ 3.34 to 6.64 µM) | COc1ccc(F)cc1[C@H](Cn1c(=O)n(C(C)C(=O)NC(C)C)c(=O)c2c(C)c(-n3nccn3)sc21)OCC(C)(C)O (some centres unmarked) [Compound I-132] | 0.25 to 1 (≈ 0.415 to 1.66 µM) | 1.01 to 2 (≈ 1.68 to 3.32 µM) | 0.25 to 1 (≈ 0.415 to 1.66 µM) | 1.01 to 2 (≈ 1.68 to 3.32 µM) | – | – | – | – | 0.25 to 1 (≈ 0.415 to 1.66 µM) | – | – | – | – | – | – | –
3 | – | COc1ccc(F)cc1[C@H](Cn1c(=O)n(C(C)(C)C(=O)NC(C)C)c(=O)c2c(C)c(-n3nccn3)sc21)OC(C)(C)C(C)=O [Compound I-178] | – | – | – | – | 10 to 40 | 10 to 40 | – | – | – | – | – | – | – | 0.25 to 1 (≈ 0.398 to 1.59 µM) | 0.25 to 1 (≈ 0.398 to 1.59 µM) | 0.25 to 1 (≈ 0.398 to 1.59 µM)
4 | > 4.01 | COc1ccccc1[C@@H](O)Cn1c(=O)n(C(C)(C)C(=O)OCc2ccccc2)c(=O)c2c(C)c(-n3nccn3)sc21 [Compound I-179] | – | 2.01 to 4 (≈ 3.49 to 6.95 µM) | – | > 4.01 | > 40 | > 40 | – | – | – | – | – | – | – | – | – | –
5 | > 4.01 | COc1ccc(F)cc1[C@H](Cn1c(=O)n(C(C)(C)C(=O)N2CC=CC2)c(=O)c2c(C)c(-n3nccn3)sc21)OCC(C)=O [Compound I-190] | – | 2.01 to 4 (≈ 3.29 to 6.55 µM) | – | > 4.01 | – | 5 to 10 | – | – | – | – | – | – | – | – | – | –
6 | – | Cc1c(-n2nccn2)sc2c1c(=O)n(C(C)(C)C(=O)NC(C)C)c(=O)n2C[C@H](O)c1cc(F)ccc1OCC#N [Compound I-199] | – | – | – | – | – | 5 to 10 | – | – | – | – | – | – | – | 1.01 to 2 (≈ 1.77 to 3.51 µM) | 2.01 to 4 (≈ 3.53 to 7.02 µM) | 2.01 to 4 (≈ 3.53 to 7.02 µM)
7 | 2.01 to 4 (≈ 3.34 to 6.64 µM) | Cc1c(-n2nccn2)sc2c1c(=O)n(C(C)(C)C(=O)NC(C)C)c(=O)n2C[C@H](OCC(C)(C)O)c1cc(F)ccc1O [Compound I-236] | – | 2.01 to 4 (≈ 3.34 to 6.64 µM) | – | 1.01 to 2 (≈ 1.68 to 3.32 µM) | – | 10 to 40 | – | – | – | – | – | – | – | – | – | –

Row | Compound | MIC (C. krusei; [6]) [µg/mL] | MIC (C. parapsilosis; [1]) [µg/mL] | MIC (C. parapsilosis; [2]) [µg/mL] | MIC (C. albicans; [3]) [µg/mL] | MIC (C. albicans; [4]) [µg/mL] | IC50 (human (hACC2); Table 2a) [nM] | IC50 (human (hACC2); Table 2b, additional results) [nM] | IC50 (fungal (fACC2); Table 2a) [nM] | IC50 (fungal (fACC2); Table 2b, additional results) [nM] | MIC (C. krusei; [5]) [µg/mL] | MIC, C. parapsilosis ATCC 22019 (C. parapsilosis; [7]) | MIC, C. albicans ATCC 90028 (C. albicans; [7]) | MIC, C. krusei ATCC 6258 (C. krusei; [7]) | MIC, C. krusei ATCC 6258 (C. krusei; Table 3b (additional results), 3 replicates, MIC recorded at 48 h) | MIC (C. parapsilosis; [8]) [µg/mL] | MIC (C. albicans; [9]) [µg/mL] | MIC (C. krusei; [10]) [µg/mL]
8 | COc1ccc(F)cc1[C@H](Cn1c(=O)n(C(C)(C)C(=O)N2CCCC2)c(=O)c2c(C)c(-n3nccn3)sc21)OCC(C)=O [Compound I-98] | 2.01 to 4 (≈ 3.28 to 6.53 µM) | 2.1 to 4 (≈ 3.43 to 6.53 µM) | 1.01 to 2 (≈ 1.65 to 3.26 µM) | 2.1 to 4 (≈ 3.43 to 6.53 µM) | 1.01 to 2 (≈ 1.65 to 3.26 µM) | 5 to 10 | 5 to 10 | 1 to 5 | 1 to 5 | 0.25 to 1 (≈ 0.408 to 1.63 µM) | – | – | – | – | – | – | –
9 | COc1ccc(F)cc1[C@H](Cn1c(=O)n(C(C)(C)C(=O)NC2CCCCC2)c(=O)c2c(C)c(-n3nccn3)sc21)OCC(C)=O [Compound I-99] | 0.25 to 1 (≈ 0.39 to 1.56 µM) | 0.25 to 1 (≈ 0.39 to 1.56 µM) | 0.25 to 1 (≈ 0.39 to 1.56 µM) | 0.25 to 1 (≈ 0.39 to 1.56 µM) | 1.01 to 2 (≈ 1.58 to 3.12 µM) | 1 to 5 | 1 to 5 | 1 to 5 | 1 to 5 | 0.06 to 0.24 (≈ 0.0936 to 0.375 µM) | – | – | – | – | – | – | –
10 | COc1ccccc1[C@H](Cn1c(=O)n(C(C)(C)C(=O)N2CC=CC2)c(=O)c2c(C)c(-n3nccn3)sc21)OC1CCOCC1 [Compound I-101] | 1.01 to 2 (≈ 1.63 to 3.22 µM) | 0.25 to 1 (≈ 0.403 to 1.61 µM) | 1.01 to 2 (≈ 1.63 to 3.22 µM) | 0.25 to 1 (≈ 0.403 to 1.61 µM) | 1.01 to 2 (≈ 1.63 to 3.22 µM) | 5 to 10 | 5 to 10 | 1 to 5 | 1 to 5 | 0.25 to 1 (≈ 0.403 to 1.61 µM) | – | – | – | – | – | – | –
